- melting point: 160 to 162 °C
Structure (SMILES): Cc1cc(N2CC=C(CC(N)=O)CC2)c2cccc(-c3ccc(Cl)cc3Cl)c2n1 [compound 1-05, 2-{1-[8-(2,4-dichlorophenyl)-2-methylquinolin-4-yl]-1,2,3,6-tetrahydropyridin-4-yl}-acetamide]

From patent US7160900B2, “Tetrahydropyridino or piperidino heterocyclic derivatives” (Taisho Pharmaceutical Co., Ltd., priority 2000, dated 2007)
